Results taken from patent US20250115598A1 (Anaxis Pharma Pty Ltd, priority 2021, published 2025).

Target: human MLKL (full length) (Homo sapiens (Human), UniProt Q8NB16)
Assay: KINOMEscan binding assay, human MLKL (full length)
Conditions: KINOMEscan, Table 21; read-out: Human MLKL (full-length) (KD)
Experimental: (§1) Binding affinity of the test compounds for human MLKL (full length), mouse MLKL (full length), human RIPK1 and human RIPK3 was determined using the KINOMEscan™ technology developed by DiscoverX (USA; http://www.discoverx.com). The assay was conducted according to manufacturer instructions.
(§2) Kinase assays. For most assays, kinase-tagged T7 phage strains were grown in parallel in 24-well blocks in an E. coli host derived from the BL21 strain. E. coli were grown to log-phase and infected with T7 phage from a frozen stock (multiplicity of infection=0.4) and incubated with shaking at 32° C. until lysis (90-150 minutes). The lysates were centrifuged (6,000×g) and filtered (0.2 μm) to remove cell debris. The remaining kinases were produced in HEK-293 cells and subsequently tagged with DNA for qPCR detection. […] The liganded beads were blocked with excess biotin and washed with blocking buffer (SeaBlock (Pierce), 1% BSA, 0.05% Tween 20, 1 mM DTT) to remove unbound ligand and to reduce non-specific phage binding. […] All reactions were performed in polypropylene 384-well plates in a final volume of 20 μL. […] The kinase concentration in the eluates was measured by qPCR.
(§3) An 11-point 3-fold serial dilution of each test compound was prepared in 100% DMSO at 100× final test concentration and subsequently diluted to 1× in the assay (final DMSO concentration=1%). Most Kos were determined using a compound top concentration=30,000 nM.
(§4) KD for each test compound was calculated with a standard dose-response curve using the Hill equation (equation (1)): […]
(§5) The Hill Slope was set to −1.
(§6) Curves were fitted using a non-linear least square fit with the Levenberg-Marquardt algorithm.

human MLKL (full length), sequence (Q8NB16 whole entry): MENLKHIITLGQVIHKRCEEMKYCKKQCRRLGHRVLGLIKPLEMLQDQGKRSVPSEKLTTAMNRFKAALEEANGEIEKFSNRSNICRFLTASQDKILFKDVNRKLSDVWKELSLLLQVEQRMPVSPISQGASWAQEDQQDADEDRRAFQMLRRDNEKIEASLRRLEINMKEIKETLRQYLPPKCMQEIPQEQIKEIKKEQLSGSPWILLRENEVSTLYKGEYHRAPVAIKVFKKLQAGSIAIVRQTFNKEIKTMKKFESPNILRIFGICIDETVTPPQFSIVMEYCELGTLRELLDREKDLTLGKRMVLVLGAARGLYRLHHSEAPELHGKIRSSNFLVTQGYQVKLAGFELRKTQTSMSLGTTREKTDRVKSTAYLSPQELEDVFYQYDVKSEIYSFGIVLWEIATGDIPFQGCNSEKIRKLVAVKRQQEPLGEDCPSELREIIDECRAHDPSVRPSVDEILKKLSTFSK

SMILES	Kd [nM]
Cn1nc(-c2ccc(NS(=O)(=O)C(F)F)c(OCc3ccc(F)cc3)c2)c2c(N)ncc(-c3ccncc3)c21 [Compound 14, N-(4-(4-amino-1-methyl-7-(pyridin-4-yl)-1H-pyrazolo[4,3-c]pyridin-3-yl)-2-((4-fluoro-benzyl)oxy)phenyl)-1,1-difluoromethane-sulfonamide]	< 1
COc1ccc([C@H](C)Oc2cc(-c3nn(C)c4c(-c5cnn(C6CCOCC6)c5)cnc(N)c34)ccc2NS(=O)(=O)C(F)F)cc1 [Compound 129, (S)-N-(4-(4-amino-1-methyl-7-(1-(tetrahydro-2H-pyran-4-yl)-1H-pyrazol-4-yl)-1H-pyrazolo[4,3-c]pyridin-3-yl)-2-(1-(4-methoxy-phenyl)ethoxy)phenyl)-1,1-difluoromethane-sulfonamide]	< 1

Same assay, conditions: hMLKL, Table 25; read-out: MLKL (KD)

SMILES	Kd [nM]
Cc1ncsc1-c1ccc(CNC(=O)[C@@H]2C[C@@H](O)CN2C(=O)[C@@H](NC(=O)CCN2CCC(C#Cc3cnc(N)c4c(-c5ccc(NS(=O)(=O)C(F)F)c(O[C@@H](C)c6ccc(F)cc6)c5)nn(C)c34)CC2)C(C)(C)C)cc1 [Compound 1024, (2S,4R)-1-[(2S)-2-{3-[4-(2-{4-amino-3-[4-(difluoromethanesulfonamido)-3-[(1S)-1-(4-fluorophenyl)ethoxy]phenyl]-1-methyl-1H-pyrazolo[4,3-c]pyridin-7-yl}ethynyl)piperidin-1-yl]propanamido}-3,3-dimethylbutanoyl]-4-hydroxy-N-{[4-(4-methyl-1,3-thiazol-5-yl)phenyl]methyl}pyrrolidine-2-carboxamide]	< 10
C[C@H](Oc1cc(-c2nn(C)c3c(-c4cnn(C5CCN(C(=O)CCC6CCN(c7cccc8c7C(=O)N(C7CCC(=O)N(C)C7=O)C8=O)CC6)CC5)c4)cnc(N)c23)ccc1NS(=O)(=O)C(F)F)c1ccc(F)cc1 (stereo partly drawn) [Compound 1141, N-[4-(4-amino-1-methyl-7-{1-[1-(3-{1-[2-(1-methyl-2,6-dioxopiperidin-3-yl)-1,3-dioxo-2,3-dihydro-1H-isoindol-4-yl]piperidin-4-yl}propanoyl)piperidin-4-yl]-1H-pyrazol-4-yl}-1H-pyrazolo[4,3-c]pyridin-3-yl)-2-[(1S)-1-(4-fluorophenyl)ethoxy]phenyl]-1,1-difluoromethanesulfonamide]	< 10
COc1ccc(C(=O)N2CCC(n3cc(-c4cnc(N)c5c(-c6ccc(NS(=O)(=O)C(F)F)c(O[C@@H](C)c7ccc(F)cc7)c6)nn(C)c45)cn3)CC2)cc1N1CCC(=O)NC1=O [Compound 1092, N-{4-[4-amino-7-(1-{1-[3-(2,4-dioxo-1,3-diazinan-1-yl)-4-methoxybenzoyl]piperidin-4-yl}-1H-pyrazol-4-yl)-1-methyl-1H-pyrazolo[4,3-c]pyridin-3-yl]-2-[(1S)-1-(4-fluorophenyl)ethoxy]phenyl}-1,1-difluoromethanesulfonamide]	< 10
Cc1ncsc1-c1ccc(CNC(=O)[C@@H]2C[C@@H](O)CN2C(=O)[C@@H](NC(=O)CCCCOC(=O)c2ccc(-c3cnc(N)c4c(-c5ccc(NS(=O)(=O)C(F)F)c(O[C@@H](C)c6ccc(F)cc6)c5)nn(C)c34)cn2)C(C)(C)C)cc1 [Compound 1065, 4-{[(2S)-1-[(2S,4R)-4-hydroxy-2-({[4-(4-methyl-1,3-thiazol-5-yl)phenyl]methyl}carbamoyl)pyrrolidin-1-yl]-3,3-dimethyl-1-oxobutan-2-yl]carbamoyl}butyl 5-{4-amino-3-[4-(difluoromethanesulfonamido)-3-[(1S)-1-(4-fluorophenyl)ethoxy]phenyl]-1-methyl-1H-pyrazolo[4,3-c]pyridin-7-yl}pyridine-2-carboxylate]	< 10
Cc1ncsc1-c1ccc(CNC(=O)[C@@H]2C[C@@H](O)CN2C(=O)[C@@H](NC(=O)c2ccc(OCCn3cc(-c4cnc(N)c5c(-c6ccc(NS(=O)(=O)C(F)F)c(O[C@@H](C)c7ccc(F)cc7)c6)nn(C)c45)cn3)cc2)C(C)(C)C)cc1 [Compound 1037, (2S,4R)-1-[(2S)-2-({4-[2-(4-{4-amino-3-[4-(difluoromethanesulfonamido)-3-[(1S)-1-(4-fluorophenyl)ethoxy]phenyl]-1-methyl-1H-pyrazolo[4,3-c]pyridin-7-yl}-1H-pyrazol-1-yl)ethoxy]phenyl}formamido)-3,3-dimethylbutanoyl]-4-hydroxy-N-{[4-(4-methyl-1,3-thiazol-5-yl)phenyl]methyl}pyrrolidine-2-carboxamide]	10 to 1000
Cc1ncsc1-c1ccc(CNC(=O)[C@@H]2C[C@@H](O)CN2C(=O)[C@@H](NC(=O)C2(F)CC2)C(C)(C)C)c(OCCCCCCCCCn2cc(-c3cnc(N)c4c(-c5ccc(NS(=O)(=O)C(F)F)c(O[C@@H](C)c6ccc(F)cc6)c5)nn(C)c34)cn2)c1 [Compound 1138, (2S,4R)—N-[(2-{[9-(4-{4-amino-3-[4-(difluoromethanesulfonamido)-3-[(1S)-1-(4-fluorophenyl)ethoxy]phenyl]-1-methyl-1H-pyrazolo[4,3-c]pyridin-7-yl}-1H-pyrazol-1-yl)nonyl]oxy}-4-(4-methyl-1,3-thiazol-5-yl)phenyl)methyl]-1-[(2S)-2-[(1-fluorocyclopropyl) formamido]-3,3-dimethylbutanoyl]-4-hydroxypyrrolidine-2-carboxamide]	10 to 1000
C[C@H](Oc1cc(-c2nn(C)c3c(-c4cnn(C5CCN(CCN6CCCC6COc6cccc7c6C(=O)N(C6CCC(=O)NC6=O)C7=O)CC5)c4)cnc(N)c23)ccc1NS(=O)(=O)C(F)F)c1ccc(F)cc1 (stereo partly drawn) [Compound 1120, N-(4-{4-amino-7-[1-(1-{2-[2-({[2-(2,6-dioxopiperidin-3-yl)-1,3-dioxo-2,3-dihydro-1H-isoindol-4-yl]oxy}methyl)pyrrolidin-1-yl]ethyl}piperidin-4-yl)-1H-pyrazol-4-yl]-1-methyl-1H-pyrazolo[4,3-c]pyridin-3-yl}-2-[(1S)-1-(4-fluorophenyl)ethoxy]phenyl)-1,1-difluoromethanesulfonamide]	< 10
Cc1ncsc1-c1ccc(CNC(=O)[C@@H]2C[C@@H](O)CN2C(=O)[C@@H](NC(=O)CCCCN2CCC(C#Cc3cnc(N)c4c(-c5ccc(NS(=O)(=O)C(F)F)c(O[C@@H](C)c6ccc(F)cc6)c5)nn(C)c34)CC2)C(C)(C)C)cc1 [Compound 1063, (2S,4R)-1-[(2S)-2-{5-[4-(2-{4-amino-3-[4-(difluoromethanesulfonamido)-3-[(1S)-1-(4-fluorophenyl)ethoxy]phenyl]-1-methyl-1H-pyrazolo[4,3-c]pyridin-7-yl}ethynyl)piperidin-1-yl]pentanamido}-3,3-dimethylbutanoyl]-4-hydroxy-N-{[4-(4-methyl-1,3-thiazol-5-yl)phenyl]methyl}pyrrolidine-2-carboxamide]	< 10
CN[C@@H](C)C(=O)N[C@H](C(=O)N1C[C@H](NC(=O)CCCCn2cc(-c3cnc(N)c4c(-c5ccc(NS(=O)(=O)C(F)F)c(O[C@@H](C)c6ccc(F)cc6)c5)nn(C)c34)cn2)C[C@H]1C(=O)Nc1c(F)cccc1F)C(C)(C)C [Compound 1080, (2S)-4-[5-(4-{4-amino-3-[4-(difluoromethanesulfonamido)-3-[(1S)-1-(4-fluorophenyl)ethoxy]phenyl]-1-methyl-1H-pyrazolo[4,3-c]pyridin-7-yl}-1H-pyrazol-1-yl)pentanamido]-N-(2,6-difluorophenyl)-1-[(2S)-3,3-dimethyl-2-[(2S)-2-(methylamino)propanamido]butanoyl]pyrrolidine-2-carboxamide]	< 10
CN[C@@H](C)C(=O)N[C@H](C(=O)N1C[C@H](NC(=O)COCCn2cc(-c3cnc(N)c4c(-c5ccc(NS(=O)(=O)C(F)F)c(O[C@@H](C)c6ccc(F)cc6)c5)nn(C)c34)cn2)C[C@H]1C(=O)Nc1c(F)cccc1F)C(C)(C)C [Compound 1089, (2S)-4-{2-[2-(4-{4-amino-3-[4-(difluoromethanesulfonamido)-3-[(1S)-1-(4-fluorophenyl)ethoxy]phenyl]-1-methyl-1H-pyrazolo[4,3-c]pyridin-7-yl}-1H-pyrazol-1-yl)ethoxy]acetamido}-N-(2,6-difluorophenyl)-1-[(2S)-3,3-dimethyl-2-[(2S)-2-(methylamino)propanamido]butanoyl]pyrrolidine-2-carboxamide]	< 10

Target: human RIPK3 (Homo sapiens (Human), UniProt Q9Y572)
Sequence (Q9Y572 whole entry): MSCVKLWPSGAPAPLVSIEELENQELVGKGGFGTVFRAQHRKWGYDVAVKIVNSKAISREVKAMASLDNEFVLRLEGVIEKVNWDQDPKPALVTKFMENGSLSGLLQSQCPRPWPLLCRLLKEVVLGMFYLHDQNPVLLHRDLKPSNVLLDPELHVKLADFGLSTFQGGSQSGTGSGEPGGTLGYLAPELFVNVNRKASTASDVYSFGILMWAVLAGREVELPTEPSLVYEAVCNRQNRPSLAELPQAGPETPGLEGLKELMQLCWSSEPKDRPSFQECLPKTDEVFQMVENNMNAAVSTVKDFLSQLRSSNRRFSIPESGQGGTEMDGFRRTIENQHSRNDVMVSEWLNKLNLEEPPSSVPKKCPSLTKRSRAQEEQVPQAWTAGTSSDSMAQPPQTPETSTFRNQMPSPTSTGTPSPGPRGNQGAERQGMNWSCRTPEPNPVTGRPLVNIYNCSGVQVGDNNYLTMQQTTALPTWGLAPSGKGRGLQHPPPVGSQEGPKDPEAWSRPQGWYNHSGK
Assay: KINOMEscan binding assay, human RIPK3
Conditions: Table 21
Experimental: as §1, §2, §3, §4, §5, §6

SMILES	Kd [nM]
CC1CN(C)CC(C)C1n1cc(-c2cnc(N)c3c(-c4ccc(NS(=O)(=O)C(F)F)c(O[C@@H](C)c5ccc(F)cc5)c4)nn(C)c23)cn1 (stereo partly drawn) [Compound 172, N-(4-(4-amino-1-methyl-7-[1-(1,3,5-trimethylpiperidin-4-yl)-1H-pyrazol-4-yl]-1H-pyrazolo[4,3-c]pyridin-3-yl}-2-[(1S)-1-(4-fluorophenyl)ethoxy]phenyl)-1,1-difluoromethanesulfonamide]	> 10000
C[C@H](Oc1cc(-c2nn(C)c3c(-c4cnn(C5CCN(CC(F)(F)F)C(C)(C)C5)c4)cnc(N)c23)ccc1NS(=O)(=O)C(F)F)c1ccc(F)cc1 (stereo partly drawn) [Compound 167, N-(4-(4-amino-7-(1-(2,2-dimethyl-1-(2,2,2-trifluoroethyl)piperidin-4-yl)-1H-pyrazol-4-yl)-1-methyl-1H-pyrazolo[4,3-c]pyridin-3-yl)-2-((S)-1-(4-fluorophenyl)ethoxy)phenyl)-1,1-difluoromethanesulfonamide]	> 10000

Target: human RIPK1 (Homo sapiens (Human), UniProt Q13546)
Sequence (Q13546 whole entry): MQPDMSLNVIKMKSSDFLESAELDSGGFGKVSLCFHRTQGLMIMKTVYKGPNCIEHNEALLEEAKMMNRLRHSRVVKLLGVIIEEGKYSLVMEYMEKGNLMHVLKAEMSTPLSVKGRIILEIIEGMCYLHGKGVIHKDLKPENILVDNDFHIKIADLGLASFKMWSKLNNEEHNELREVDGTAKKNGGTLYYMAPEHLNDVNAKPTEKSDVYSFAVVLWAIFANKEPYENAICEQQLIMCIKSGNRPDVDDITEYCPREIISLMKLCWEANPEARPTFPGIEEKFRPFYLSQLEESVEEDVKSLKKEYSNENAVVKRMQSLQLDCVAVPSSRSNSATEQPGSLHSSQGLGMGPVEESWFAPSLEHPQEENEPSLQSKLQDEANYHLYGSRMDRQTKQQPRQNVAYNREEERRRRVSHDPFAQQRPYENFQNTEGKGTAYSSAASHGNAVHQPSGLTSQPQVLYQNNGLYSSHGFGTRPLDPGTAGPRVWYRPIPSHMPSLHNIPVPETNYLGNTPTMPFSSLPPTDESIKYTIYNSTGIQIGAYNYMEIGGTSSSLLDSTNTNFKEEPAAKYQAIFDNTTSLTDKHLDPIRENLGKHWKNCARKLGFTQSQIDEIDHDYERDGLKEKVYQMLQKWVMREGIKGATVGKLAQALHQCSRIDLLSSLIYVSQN
Assay: KINOMEscan binding assay, human RIPK1
Conditions: Table 21
Experimental: as §1, §2, §3, §4, §5, §6

SMILES	Kd [nM]
CC1CN(C)CC(C)C1n1cc(-c2cnc(N)c3c(-c4ccc(NS(=O)(=O)C(F)F)c(O[C@@H](C)c5ccc(F)cc5)c4)nn(C)c23)cn1 (stereo partly drawn) [Compound 172, N-(4-(4-amino-1-methyl-7-[1-(1,3,5-trimethylpiperidin-4-yl)-1H-pyrazol-4-yl]-1H-pyrazolo[4,3-c]pyridin-3-yl}-2-[(1S)-1-(4-fluorophenyl)ethoxy]phenyl)-1,1-difluoromethanesulfonamide]	100 to 10000
C[C@H](Oc1cc(-c2nn(C)c3c(-c4cnn(C5CCN(CC(F)(F)F)C(C)(C)C5)c4)cnc(N)c23)ccc1NS(=O)(=O)C(F)F)c1ccc(F)cc1 (stereo partly drawn) [Compound 167, N-(4-(4-amino-7-(1-(2,2-dimethyl-1-(2,2,2-trifluoroethyl)piperidin-4-yl)-1H-pyrazol-4-yl)-1-methyl-1H-pyrazolo[4,3-c]pyridin-3-yl)-2-((S)-1-(4-fluorophenyl)ethoxy)phenyl)-1,1-difluoromethanesulfonamide]	> 10000
